# Measured values reported in patent publication US20240024490A1, “BIFUNCTIONAL MOLECULES FOR SELECTIVE MODIFICATION OF TARGET SUBSTRATES” (The Broad Institute, Inc., priority 2021, published 2024).
# Where two headings read alike, the source gives them in different places.
# Legend:
# AMPK = conditions: cited from earlier work
# JNK 1 = JNK 1 (Homo sapiens, UniProt P45983); conditions: cited from earlier work
# JNK 2 = JNK 2 (Homo sapiens, UniProt P45984); conditions: cited from earlier work
# K562 cells = test: K562 cell viability; format: cell-based
# Recombinant PKCζ = biological target: T1, Recombinant PKCζ (Homo sapiens, UniProt Q05513); conditions: cited from earlier work
# T1 sequence (Q05513 1-592): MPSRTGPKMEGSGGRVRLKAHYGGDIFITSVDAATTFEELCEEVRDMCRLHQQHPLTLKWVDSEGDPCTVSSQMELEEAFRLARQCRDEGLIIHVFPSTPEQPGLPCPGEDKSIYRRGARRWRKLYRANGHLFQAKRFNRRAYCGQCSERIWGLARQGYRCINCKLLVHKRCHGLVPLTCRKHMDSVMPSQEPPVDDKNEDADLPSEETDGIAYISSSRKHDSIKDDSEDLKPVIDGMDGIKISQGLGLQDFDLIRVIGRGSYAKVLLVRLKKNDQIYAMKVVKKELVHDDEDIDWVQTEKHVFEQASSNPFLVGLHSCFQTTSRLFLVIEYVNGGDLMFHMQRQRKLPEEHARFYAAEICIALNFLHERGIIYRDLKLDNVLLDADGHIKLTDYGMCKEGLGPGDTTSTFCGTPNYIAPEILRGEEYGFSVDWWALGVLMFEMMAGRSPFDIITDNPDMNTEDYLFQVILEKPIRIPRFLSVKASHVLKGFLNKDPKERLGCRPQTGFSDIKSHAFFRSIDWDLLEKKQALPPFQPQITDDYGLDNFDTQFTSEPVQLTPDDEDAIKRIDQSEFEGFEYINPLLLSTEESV
# Z-138 cells [1] = test: Z-138 cell viability; format: cell-based
# Excerpt: Since PKC phosphorylates membrane-associated BTK with the C1 domain buried in the lipid bilayer, [5] Applicants aimed to characterize PHICS-mediated BTK phosphorylation by PKC in vitro in the absence of lipid bilayer. […] PEG4 linker, and benzolactam (FIG. 73A). […] One of the modified residues (T410) is located close to the ATP binding pocket, whereas other sites (S310, 5323, and 5378) are on the loops of the SH2 domain in BTK. […] To explore the biological consequences of these neo-phosphorylations, Applicants adopted a genetic approach where the phosphorylated Ser/Thr residues were mutated to aspartic acid, a phosphomimetic, and alanine as a control. […] [8] […] The following studies will be focused on further optimization of the anti-cancer potency of BTK and BCR-ABL targeting PKC-based PHICS molecules as well as on the detailed investigation of their mechanism of action.
# Applicants assessed the viability of Z-138 cells after introduction of small molecules at various concentrations, see FIGS. 67-71. […]
# Applicants found a non-linear dependency on Z-138 cell viability as a function of linker length and composition.
# Z-138 cells [2] = test: Z-138 cell viability; format: cell-based; conditions: FIGS. 67-71
# HER2-Cter-FKBP construct = test: Phosphorylation of HER2-FKBP construct by ABL in HEK293 cells; format: cell-based; conditions: 15 minutes, pY1221 HER2-specific antibody
# HER2-Cter-FKBP = test: Phosphorylation of HER2-Cter-FKBP by ABL in transfected HEK293 cells (pY1221 HER2-specific antibody); format: cell-based; conditions: 15 minutes of compound treatment, FIG. 74C
# FGFR = test: FGFR-FKBP phosphorylation by ABL and FGFR1/mTOR/G-CSF signaling; format: cell-based
# Excerpt: Applicants expanded the scope of ABL targets by phosphorylating a receptor tyrosine kinase, FGFR by fusing an FKBP domain to the cytosolic portion of FGFR (FIG. 37).
# [3] = cited from earlier work
# PDK1 [4] = biological target: T2, PDK1 (Homo sapiens, UniProt O15530); conditions: cited from earlier work
# T2 sequence (O15530 1-556): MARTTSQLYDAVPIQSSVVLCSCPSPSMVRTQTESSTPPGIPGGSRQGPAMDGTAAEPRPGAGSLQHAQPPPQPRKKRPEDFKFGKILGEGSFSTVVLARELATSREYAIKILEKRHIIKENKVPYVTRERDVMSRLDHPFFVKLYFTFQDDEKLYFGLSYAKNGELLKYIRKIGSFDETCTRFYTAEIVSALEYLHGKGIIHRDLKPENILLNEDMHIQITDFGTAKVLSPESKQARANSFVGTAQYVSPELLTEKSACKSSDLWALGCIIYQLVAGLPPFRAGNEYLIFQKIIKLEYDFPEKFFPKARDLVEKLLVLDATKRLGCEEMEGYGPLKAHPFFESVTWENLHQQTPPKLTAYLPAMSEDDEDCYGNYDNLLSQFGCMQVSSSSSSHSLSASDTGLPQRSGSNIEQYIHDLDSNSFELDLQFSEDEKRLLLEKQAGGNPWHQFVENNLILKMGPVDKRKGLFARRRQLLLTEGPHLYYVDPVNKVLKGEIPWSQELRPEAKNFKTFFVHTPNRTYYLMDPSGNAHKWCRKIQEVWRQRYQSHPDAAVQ
# PDK1 [5] = biological target: T2, PDK1; conditions: ITC; cited from earlier work
# Aurora A = biological target: T3, Aurora A (Homo sapiens, UniProt O14965); conditions: cited from earlier work; for Ki: read-out: Calculated Ki
# T3 sequence (O14965 1-403): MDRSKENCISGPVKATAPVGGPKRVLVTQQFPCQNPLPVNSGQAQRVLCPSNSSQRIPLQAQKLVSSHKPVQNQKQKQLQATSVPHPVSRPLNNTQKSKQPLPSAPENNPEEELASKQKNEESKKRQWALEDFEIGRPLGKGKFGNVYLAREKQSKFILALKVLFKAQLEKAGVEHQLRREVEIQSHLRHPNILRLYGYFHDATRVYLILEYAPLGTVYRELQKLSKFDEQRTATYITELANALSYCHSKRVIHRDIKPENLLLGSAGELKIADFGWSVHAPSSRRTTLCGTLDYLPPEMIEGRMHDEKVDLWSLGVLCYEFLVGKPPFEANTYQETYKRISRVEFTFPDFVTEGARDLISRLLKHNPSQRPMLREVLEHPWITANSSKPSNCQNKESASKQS
# ABL myristoyl domain = conditions: cited from earlier work
# [6] = biological target: β1 subunit-containing AMPK (Homo sapiens, UniProt Q13131+Q9Y478); conditions: cited from earlier work
# Sequence of β1 subunit-containing AMPK (Q9Y478 whole entry): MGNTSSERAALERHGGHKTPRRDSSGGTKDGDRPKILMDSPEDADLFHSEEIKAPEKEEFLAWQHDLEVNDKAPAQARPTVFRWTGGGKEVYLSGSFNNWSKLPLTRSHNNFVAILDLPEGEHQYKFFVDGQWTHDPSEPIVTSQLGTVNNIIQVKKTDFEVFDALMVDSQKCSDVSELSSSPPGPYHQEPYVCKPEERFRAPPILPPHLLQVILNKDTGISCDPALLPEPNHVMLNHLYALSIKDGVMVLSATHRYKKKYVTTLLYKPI
# Sequence of β1 subunit-containing AMPK (Q13131 whole entry): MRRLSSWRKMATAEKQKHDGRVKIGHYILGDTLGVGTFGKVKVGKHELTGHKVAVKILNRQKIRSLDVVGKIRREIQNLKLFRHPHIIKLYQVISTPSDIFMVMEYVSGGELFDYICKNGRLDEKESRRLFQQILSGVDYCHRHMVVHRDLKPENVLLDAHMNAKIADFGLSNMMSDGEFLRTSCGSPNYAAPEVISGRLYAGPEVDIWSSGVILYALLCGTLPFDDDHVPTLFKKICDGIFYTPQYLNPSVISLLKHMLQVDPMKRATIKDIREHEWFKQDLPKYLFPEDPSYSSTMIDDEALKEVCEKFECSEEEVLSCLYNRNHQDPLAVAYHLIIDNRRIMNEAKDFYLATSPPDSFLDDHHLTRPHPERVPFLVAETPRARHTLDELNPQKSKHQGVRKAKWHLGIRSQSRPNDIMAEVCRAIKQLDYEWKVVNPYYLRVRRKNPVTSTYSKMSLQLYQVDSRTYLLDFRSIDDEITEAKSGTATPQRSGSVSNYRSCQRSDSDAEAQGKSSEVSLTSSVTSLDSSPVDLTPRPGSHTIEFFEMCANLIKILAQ
# Sequence of β1 subunit-containing AMPK (P54619 whole entry partner): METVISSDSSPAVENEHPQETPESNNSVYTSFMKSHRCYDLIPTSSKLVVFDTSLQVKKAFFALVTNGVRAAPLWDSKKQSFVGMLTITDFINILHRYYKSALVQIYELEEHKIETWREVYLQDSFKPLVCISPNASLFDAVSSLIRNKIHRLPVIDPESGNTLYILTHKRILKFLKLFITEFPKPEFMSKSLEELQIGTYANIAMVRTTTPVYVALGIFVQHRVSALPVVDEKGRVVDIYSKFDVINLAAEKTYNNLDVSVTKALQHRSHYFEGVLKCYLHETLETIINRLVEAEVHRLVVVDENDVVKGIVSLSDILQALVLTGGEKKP
# [7] = biological target: β2 subunit-containing AMPK (Homo sapiens, UniProt O43741+Q13131); conditions: cited from earlier work
# Sequence of β2 subunit-containing AMPK (O43741 whole entry): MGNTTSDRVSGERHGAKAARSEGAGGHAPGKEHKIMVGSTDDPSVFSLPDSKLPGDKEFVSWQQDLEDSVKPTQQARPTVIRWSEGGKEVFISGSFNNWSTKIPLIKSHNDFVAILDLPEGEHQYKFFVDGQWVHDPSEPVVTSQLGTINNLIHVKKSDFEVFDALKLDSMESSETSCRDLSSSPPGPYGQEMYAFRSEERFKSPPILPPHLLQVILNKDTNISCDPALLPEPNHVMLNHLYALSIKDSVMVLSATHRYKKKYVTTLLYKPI
# Sequence of β2 subunit-containing AMPK (Q13131 whole entry): as the sequence (Q13131 whole entry) above
# Sequence of β2 subunit-containing AMPK (P54619 whole entry partner): as the sequence (P54619 whole entry partner) above
# HSP90 = conditions: cell free assay; cited from earlier work
# Sequence of JNK 2 (P45984 whole entry, species assumed): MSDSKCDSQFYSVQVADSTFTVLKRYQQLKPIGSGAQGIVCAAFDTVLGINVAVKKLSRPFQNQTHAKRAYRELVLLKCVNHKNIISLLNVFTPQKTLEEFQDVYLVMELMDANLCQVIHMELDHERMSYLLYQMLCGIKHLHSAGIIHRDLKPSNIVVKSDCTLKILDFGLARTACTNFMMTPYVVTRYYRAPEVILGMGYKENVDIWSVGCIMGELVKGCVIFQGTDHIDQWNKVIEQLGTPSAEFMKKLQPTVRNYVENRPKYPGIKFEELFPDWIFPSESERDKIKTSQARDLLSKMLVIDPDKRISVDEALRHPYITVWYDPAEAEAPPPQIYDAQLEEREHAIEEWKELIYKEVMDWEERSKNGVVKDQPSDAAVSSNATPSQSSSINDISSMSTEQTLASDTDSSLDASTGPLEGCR
# Sequence of JNK 1 (P45983 whole entry, species assumed): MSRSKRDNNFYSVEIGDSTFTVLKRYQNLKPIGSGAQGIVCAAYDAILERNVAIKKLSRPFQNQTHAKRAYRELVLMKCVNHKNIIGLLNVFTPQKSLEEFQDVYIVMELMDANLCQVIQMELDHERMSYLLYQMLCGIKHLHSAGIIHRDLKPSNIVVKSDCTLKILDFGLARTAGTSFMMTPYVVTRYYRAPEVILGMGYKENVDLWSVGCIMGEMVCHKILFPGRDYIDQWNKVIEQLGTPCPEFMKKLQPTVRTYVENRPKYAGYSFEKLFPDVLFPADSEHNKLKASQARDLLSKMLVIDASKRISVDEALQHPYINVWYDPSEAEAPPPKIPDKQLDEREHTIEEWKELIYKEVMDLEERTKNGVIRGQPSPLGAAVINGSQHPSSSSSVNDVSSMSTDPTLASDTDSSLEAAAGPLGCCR
compound,measurement,setting,value
N#Cc1c(O)c2c(-c3ccc(-c4ccccc4O)cc3)csc2[nH]c1=O [A769662],pEC50,AMPK,6.0
CCOc1nc(C(=O)NCC2CCN(Cc3sc(-c4ccccc4)nc3C)CC2)cc(N)c1C#N [compound 6],IC50,JNK 1,< 0.0018 µM
same,IC50,JNK 2,< 0.0026 µM
CCCN(Cc1ccc(-c2ccccc2-c2nn[nH]n2)cc1)c1nc2ccccc2s1 [Cpd2],EC50,K562 cells,~1 µM
CC(C)(C)C1=NN(c2cccc(F)c2)C(c2ccc(O)cc2)C1 (stereo not shown) [1i],"cell-free assay, % inhibition at 62.5 μM",Recombinant PKCζ,98.1%
CC(C)(C)C1=NN(c2ccccc2Cl)C(c2ccc(O)cc2)C1 (stereo not shown) [1l],"cell-free assay, % inhibition at 62.5 μM",Recombinant PKCζ,57.1%
C=CC(=O)N1CCC[C@@H](n2nc(-c3ccc(Oc4ccccc4)cc3)c3c(N)ncnc32)C1 [Ibrutinib],effect on Z-138 cell viability,Z-138 cells [1],did not have any significant effect
same,effect on Z-138 cell viability,Z-138 cells [2],did not have any significant effect
CC[C@H](C(=O)N1CCCC[C@H]1C(=O)O[C@@H](CCc1ccc(OC)c(OC)c1)c1cccc(OCC(=O)NCCOCCOCCOCCOCCC(=O)NC2=NN(c3ccc(Cl)c(Cl)c3)CC2)c1)c1cc(OC)c(OC)c(OC)c1 [VS1043],phosphorylation of HER2-Cter-FKBP construct,HER2-Cter-FKBP construct,significant phosphorylation
same,phosphorylation of HER2-Cter-FKBP construct,HER2-Cter-FKBP,significant phosphorylation
same,FGFR phosphorylation / FGFR1/mTOR/G-CSF signaling,FGFR,activates FGFR1/mTOR/G-CSF signaling in a dose dependent manner
O=C(NOCC(O)CO)c1ccc(F)c(F)c1Nc1ccc(I)cc1F (racemic) [Compound 33],Sol (pH 6.5),[3],147 μg/mL
CCc1ccc(CC/C(=C/C(=O)O)c2ccccc2)cc1 [10Z],AC50,PDK1 [4]; read-out: AC50,> 50 µM
CNCc1ccc(COc2ccc3c(c2)N(C)C(C(C)C)C(=O)NC(CO)C3)cc1 (stereo not shown) [benzolactam],effect on Z-138 cell viability,Z-138 cells [1],did not have any significant effect
same,effect on Z-138 cell viability,Z-138 cells [2],did not have any significant effect
O=C(Nc1nnc(SCc2ccc([N+](=O)[O-])cc2)s1)c1ccccc1Cl [6E],AC50,PDK1 [4],n.e.
O=C(O)/C=C(/CCc1c[nH]c2ccccc12)c1ccccc1 [13Z],AC50,PDK1 [4]; read-out: AC50,7.6 µM
same,TΔS,PDK1 [5],2.60 kcal/mol
same,ΔG,PDK1 [5],-6.73 kcal/mol
same,ΔH,PDK1 [5],-4.09 kcal/mol
same,ΔH/ΔG,PDK1 [5],60.8%
CC(C)c1ccc(N2N=C(C(C)(C)C)CC2c2ccc(O)cc2)cc1 (stereo not shown) [1f],"cell-free assay, % inhibition at 62.5 μM",Recombinant PKCζ,54.9%
CC(C)(C)C1=NN(c2ccc(Cl)cc2Cl)C(c2ccc(O)cc2)C1 (stereo not shown) [1n],"cell-free assay, % inhibition at 62.5 μM",Recombinant PKCζ,71.0%
O=C(O)/C=C(/CCc1ccc2ccccc2c1)c1ccccc1 [12Z],AC50,PDK1 [4]; read-out: AC50,6 µM
same,TΔS,PDK1 [5],1.96 kcal/mol
same,ΔG,PDK1 [5],-6.67 kcal/mol
same,ΔH,PDK1 [5],-4.56 kcal/mol
same,ΔH/ΔG,PDK1 [5],68.3%
O=C(NOC[C@H](O)CO)c1ccc(F)c(F)c1Nc1ccc(I)cc1F [Mirdametinib],Sol (pH 6.5),[3],190 μg/mL
O=C(NOCC(O)CO)c1ccc(F)c(F)c1Nc1ccc(I)cc1F (stereo not shown) [Compound 35],Sol (pH 6.5),[3],"255, μg/mL"
CC(C)(C)C1=NN(c2ccc(F)cc2F)C(c2ccc(O)cc2)C1 (stereo not shown) [1o],"cell-free assay, % inhibition at 62.5 μM",Recombinant PKCζ,68.0%
CC(C)(C)C1=NN(c2ccc(C(F)(F)F)cc2)C(c2ccc(O)cc2)C1 (stereo not shown) [1d],"cell-free assay, % inhibition at 62.5 μM",Recombinant PKCζ,94.2%
O=C(O)c1cc(-c2cccc(F)c2)nc2ccccc12 [compound 26],IC50,Aurora A,75.9 µM
same,Ki,Aurora A,16.5 µM
O=C(O)/C=C(/CCc1ccc(Br)cc1)c1ccccc1 [5Z],AC50,PDK1 [4]; read-out: AC50,9.8 µM
same,TΔS,PDK1 [5],3.20 kcal/mol
same,ΔG,PDK1 [5],-6.32 kcal/mol
same,ΔH,PDK1 [5],-3.07 kcal/mol
same,ΔH/ΔG,PDK1 [5],46.6%
CCc1ccc(CC/C(=C\C(=O)O)c2ccccc2)cc1 [10E],AC50,PDK1 [4],n.e.
CCCCN(Cc1ccc(-c2ccccc2-c2nn[nH]n2)cc1)c1nc(C)cc(C)n1 [Cpd3],EC50,K562 cells,~0.31 µM
O=C(O)/C=C(/CCc1cccc(Cl)c1)c1ccccc1 [3Z],AC50,PDK1 [4]; read-out: AC50,9.5 µM
Cc1ccc(N2N=C(C(C)(C)C)CC2c2ccc(O)cc2)c(C)c1 (stereo not shown) [1p],"cell-free assay, % inhibition at 62.5 μM",Recombinant PKCζ,59.9%
CCCN(Cc1ccc(-c2ccccc2-c2nn[nH]n2)cc1)c1nc2ccccc2s1 [compound 2],pIC50,ABL myristoyl domain,6.5
CC(C)(C)C1=NN(c2ccc(Br)cc2)C(c2ccc(O)cc2)C1 (stereo not shown) [1c],"cell-free assay, % inhibition at 62.5 μM",Recombinant PKCζ,93.2%
same,IC50,"Recombinant PKCζ; read-out: cell-free assay, IC50 ± SD",11.4 ± 1.25 µM
MT47-100,pKi as an activator,[6],5.4
same,pKi as an allosteric inhibitor,[7],4.6
O=C(O)/C=C(\CCc1ccc(F)cc1)c1ccccc1 [4E],AC50,PDK1 [4],n.e.
Cc1ccc(CC/C(=C\C(=O)O)c2ccccc2)c(Cl)c1 [8E],AC50,PDK1 [4],n.e.
O=C(O)/C=C(/CCc1ccc(C(F)(F)F)cc1)c1ccccc1 [6Z],AC50,PDK1 [4]; read-out: AC50,7.1 µM
same,TΔS,PDK1 [5],4.79 kcal/mol
same,ΔG,PDK1 [5],-6.73 kcal/mol
same,ΔH,PDK1 [5],-1.84 kcal/mol
same,ΔH/ΔG,PDK1 [5],26.5%
CC(C)(C)C1=NN(c2ccccc2F)C(c2ccc(O)cc2)C1 (stereo not shown) [1m],"cell-free assay, % inhibition at 62.5 μM",Recombinant PKCζ,57.6%
O=C1NC(=O)C(c2cn(-c3ccccc3)nc2-c2ccc(F)cc2)N1 (stereo not shown) [Cpd1],EC50,K562 cells; unit inferred,≥ 10 µM
same,EC50,"K562 cells; unit inferred, listed as Cpdl",> 10 µM
CC(C)(C)C1=NN(c2ccc(C(=O)O)cc2)C(c2ccc(O)cc2)C1 (stereo not shown) [1g],"cell-free assay, % inhibition at 62.5 μM",Recombinant PKCζ,47.9%
O=C(O)c1cc(-c2cccc(C(F)(F)F)c2)nc2ccccc12 [compound 34],IC50,Aurora A,26.5 µM
same,Ki,Aurora A,5.7 µM
Alvespimycin,IC50,HSP90,0.062 µM
CNc1ncc2c(n1)N(C1CCC(O)C1)C(=O)N(c1cc(NC(=O)c3ccc(CN4CCN(C)CC4)c(C(F)(F)F)c3)ccc1C)C2 (stereo not shown) [compound 9],IC50,JNK 1,0.97 µM
same,IC50,JNK 2,1.3 µM
